Results taken from ChEMBL document CHEMBL3132836, “Structure-based drug design of chromone antagonists of the adenosine A2A receptor” (Medchemcomm, 2014).

Test system: not listed separately
Test: Half life in Sprague-Dawley rat liver microsomes at 3 uM by LC-MS analysis
Assay type: ADME
Conditions: not given
Cc1csc(-c2coc3cc(OCC4CC4)cc(C)c3c2=O)n1 showed a half-life at 3 µM of 18 min.
Work on Cc1csc(-c2coc3cccc(C)c3c2=O)n1 yielded a half-life at 3 µM of 14 min.
Work on CCOc1cc2occ(-c3nc(C)cs3)c(=O)c2cc1CC yielded a half-life at 3 µM of 16 min.

Biological target: T1, Adenosine receptor A1 (Homo sapiens, UniProt P30542)
T1 sequence (P30542 whole entry): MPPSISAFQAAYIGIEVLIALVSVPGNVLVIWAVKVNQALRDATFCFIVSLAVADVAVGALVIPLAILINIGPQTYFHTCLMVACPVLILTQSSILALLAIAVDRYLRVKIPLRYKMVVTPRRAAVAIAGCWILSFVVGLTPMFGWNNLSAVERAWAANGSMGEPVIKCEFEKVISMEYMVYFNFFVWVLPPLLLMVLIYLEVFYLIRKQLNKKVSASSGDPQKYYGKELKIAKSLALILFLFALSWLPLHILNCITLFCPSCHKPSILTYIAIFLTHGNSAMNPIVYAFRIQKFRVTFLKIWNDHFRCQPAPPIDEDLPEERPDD
Test: Displacement of [3H]DPCPX from human adenosine A1 receptor expressed in CHO cells after 1 hr by liquid scintillation counting
Assay type: cell-based
Conditions: not given
In the case of CCOc1cc2occ(-c3nc(C)cs3)c(=O)c2cc1CC, the Ki is reported as 5000 nM.

Biological target: Adenosine receptor A2a (Homo sapiens, UniProt P29274)
Sequence (P29274 whole entry): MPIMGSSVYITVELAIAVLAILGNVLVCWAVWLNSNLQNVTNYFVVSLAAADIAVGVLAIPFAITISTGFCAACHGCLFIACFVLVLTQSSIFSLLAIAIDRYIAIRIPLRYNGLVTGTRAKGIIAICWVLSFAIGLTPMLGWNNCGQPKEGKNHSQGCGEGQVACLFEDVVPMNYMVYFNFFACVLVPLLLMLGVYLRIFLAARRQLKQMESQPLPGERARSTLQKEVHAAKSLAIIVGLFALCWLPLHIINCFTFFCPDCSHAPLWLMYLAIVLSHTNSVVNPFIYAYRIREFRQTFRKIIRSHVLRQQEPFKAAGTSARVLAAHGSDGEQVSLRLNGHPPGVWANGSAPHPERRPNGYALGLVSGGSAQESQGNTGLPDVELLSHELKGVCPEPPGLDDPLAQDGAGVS
Test: Displacement of [3H]ZM241385 from human adenosine A2A receptor expressed in HEK293 cells after 1 hr by liquid scintillation counting
Assay type: cell-based
Conditions: read-out: Ki
For CCOc1cc2occ(-c3nc(C)cs3)c(=O)c2cc1CC, the Ki was 40 nM.

Same assay, conditions: read-out: pKi (converted)
Cc1csc(-c2coc3cc(OCC4CC4)cc(C)c3c2=O)n1 showed a Ki of 79.4 nM.
Work on CCCc1cc2c(=O)c(-c3nc(C)cs3)coc2cc1O yielded a Ki of 25.1 nM.
CCCCCc1cc2c(=O)c(-c3nc(C)cs3)coc2cc1O gave a Ki of 20 nM.
Molecule CCCc1cc2c(=O)c(-c3csc(C)n3)coc2cc1O has a Ki of 31.6 nM.
With Cc1csc(-c2coc3cc(O)ccc3c2=O)n1 the Ki was 2000 nM.
In the case of C#CCCCOc1cc(C)c2c(=O)c(-c3nc(C)cs3)coc2c1, the Ki is reported as 25.1 nM.
For Cc1csc(-c2coc3cccc(C)c3c2=O)n1, the Ki was 316 nM.
Cc1csc(-c2coc3cc(OCC(=O)O)cc(C)c3c2=O)n1 showed a Ki of 2000 nM.
For CCOc1cc2occ(-c3nc(C)cs3)c(=O)c2cc1CC, the Ki was 39.8 nM.
For CCc1cc2c(=O)c(-c3cscn3)coc2cc1O, the Ki was 1580 nM.
For CCc1cc2c(=O)c(-c3csc(C)n3)coc2cc1O, the Ki was 50.1 nM.
With Cc1csc(-c2c(C)oc3cc(O)ccc3c2=O)n1 the Ki was 7940 nM.
In the case of Cc1csc(-c2coc3cc(OCCN(C)C)cc(C)c3c2=O)n1, the Ki is reported as 1580 nM.
Molecule CC(=O)Oc1cc(C)c2c(=O)c(-c3nc(C)cs3)coc2c1 has a Ki of 31.6 nM.
For CCc1cc2c(=O)c(-c3nc(C)cs3)coc2cc1O, the Ki was 79.4 nM.
For CCOC(=O)COc1cc(C)c2c(=O)c(-c3nc(C)cs3)coc2c1, the Ki was 100 nM.

Biological target: T2, Adenosine receptor A2b (Homo sapiens, UniProt P29275)
T2 sequence (P29275 whole entry): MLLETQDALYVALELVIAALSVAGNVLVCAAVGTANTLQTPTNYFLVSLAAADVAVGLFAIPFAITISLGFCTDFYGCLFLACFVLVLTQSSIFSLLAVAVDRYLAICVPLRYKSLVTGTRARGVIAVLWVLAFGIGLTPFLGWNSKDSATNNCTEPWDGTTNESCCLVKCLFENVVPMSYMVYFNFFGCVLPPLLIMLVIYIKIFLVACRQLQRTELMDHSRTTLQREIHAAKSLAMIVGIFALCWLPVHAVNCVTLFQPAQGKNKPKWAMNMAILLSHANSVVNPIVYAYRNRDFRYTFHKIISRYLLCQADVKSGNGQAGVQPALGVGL
Test: Displacement of [3H]MRS1754 from adenosine A2B receptor (unknown origin) expressed in HEK293 cells after 90 mins
Assay type: cell-based
Conditions: not given
In the case of CCOc1cc2occ(-c3nc(C)cs3)c(=O)c2cc1CC, the IC50 is reported as over 10000 nM and the Ki is reported as over 10000 nM.

Test system: CHO
Test: Selectivity ratio of Ki for human adenosine A1 receptor expressed in CHO cells to Ki for human adenosine A2A receptor expressed in HEK293 cells
Assay type: cell-based
Conditions: not given
Molecule Cc1csc(-c2coc3cc(OCC4CC4)cc(C)c3c2=O)n1 has a Ratio Ki of over 100.
For CCCCCc1cc2c(=O)c(-c3nc(C)cs3)coc2cc1O, the Ratio Ki was over 100.
With CC(=O)Oc1cc(C)c2c(=O)c(-c3nc(C)cs3)coc2c1 the Ratio Ki was 13.
With CCc1cc2c(=O)c(-c3nc(C)cs3)coc2cc1O the Ratio Ki was over 100.

Biological target: T3, Adenosine receptor A3 (Homo sapiens, UniProt P0DMS8)
T3 sequence (P0DMS8 whole entry): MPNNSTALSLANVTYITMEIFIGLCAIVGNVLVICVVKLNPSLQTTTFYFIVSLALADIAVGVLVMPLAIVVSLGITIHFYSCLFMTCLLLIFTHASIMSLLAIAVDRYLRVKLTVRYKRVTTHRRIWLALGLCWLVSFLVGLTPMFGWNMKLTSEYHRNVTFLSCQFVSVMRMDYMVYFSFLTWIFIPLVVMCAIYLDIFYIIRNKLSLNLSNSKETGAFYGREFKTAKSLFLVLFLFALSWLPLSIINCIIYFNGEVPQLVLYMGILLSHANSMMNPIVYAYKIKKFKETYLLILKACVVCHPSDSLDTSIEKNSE
Test: Displacement of [125I]AB-MECA from adenosine A3 receptor (unknown origin) expressed in CHO-K1 cells after 60 mins
Assay type: cell-based
Conditions: not given
Molecule CCOc1cc2occ(-c3nc(C)cs3)c(=O)c2cc1CC has an IC50 of over 10000 nM and a Ki of over 10000 nM.
